The source of these data is ChEMBL document CHEMBL6096674, “Design, Synthesis, and Anticancer Activity of Drug-like Iron Chelators/G-Quadruplex Binders as Synergic Dual Targeting Agents” (J Med Chem, 2025).

Data set [1] has as its system Quadruplex DNA. Description: Stabilization of Parallel c-Kit1 G4-quadruplex DNA (5'-AGGGAGGGCGCTGGGAGGAGGG-3') (unknown origin) assessed as change in melting temperature at 5 equiv. by CD melting based analysis. It counts as nucleic-acid assay.
For data set [2], the system named is Quadruplex DNA. In words: Stabilization of Parallel c-Kit2 G4-quadruplex DNA (5'-CGGGCGGGCGCTAGGGAGGGT-3') (unknown origin) assessed as change in melting temperature at 5 equiv. by CD melting based analysis. It counts as nucleic-acid assay.
The test system of data set [3] is Quadruplex DNA. Description: Stabilization of Parallel c-Myc G4-quadruplex DNA (5'-TGAGGGTGGGTAGGGTGGGTAA-3') (unknown origin) assessed as change in melting temperature at 5 equiv. by CD melting based analysis. The class given is nucleic-acid assay.
Data set [4] deals with Quadruplex DNA. Description: Stabilization of Hybrid Bcl2 G4-quadruplex DNA (5'-AGGGCGCGGGAGGAAGGGGGCGGGA-3') (unknown origin) assessed as change in melting temperature at 5 equiv. by CD melting based analysis. It counts as nucleic-acid assay.
In data set [5] the test system is Quadruplex DNA. In words: Stabilization of human Hybrid Tel23 G4-quadruplex DNA (5'-TAGGGTTAGGGTTAGGGTTAGGG-3') assessed as change in melting temperature at 5 equiv. by CD melting based analysis. The class given is nucleic-acid assay.
Data set [6] concerns Hairpin duplex DNA. Description: Stabilization of Hairpin duplex DNA (5'-CGCGAATTCGCGTTTCGCGAATTCGCG-3') (unknown origin) assessed as change in melting temperature at 5 equiv. by CD melting based analysis. It counts as nucleic-acid assay.
Data set [7] deals with Jurkat. In words: Antiproliferative activity against human Jurkat cells assessed as decrease in cell survival incubated for 48 hrs by MTT assay. The class given is functional, cell-based.
The subject of another data set is A-375. Description: Antiproliferative activity against human A-375 cells assessed as decrease in cell survival incubated for 48 hrs by MTT assay. It counts as functional, cell-based. Conditions: A-375, 48 h. (Tetrazolium dyes change colour on reduction, which living cells bring about.)
Another data set deals with MCF7. Description: Antiproliferative activity against human MCF7 cells assessed as decrease in cell survival incubated for 48 hrs by MTT assay. It counts as functional, cell-based. The following applies: MCF7, 48 h.
The subject of another data set is HCT-116. In words: Antiproliferative activity against human HCT-116 cells assessed as decrease in cell survival incubated for 48 hrs by MTT assay. It counts as functional, cell-based. The following applies: HCT-116, 48 h.
Data set [8] is described as follows: Cytotoxicity against human HaCaT cells assessed as decrease in cell survival incubated for 48 hrs by MTT assay. It counts as toxicity, cell-based.
Data set [9] has as its system Jurkat. In words: Antiproliferative activity human Jurkat cells assessed as reduction in cell number incubated for 48 hrs by phase contrast light microscopy. The class given is functional, cell-based. The following applies: dose 10-100 µM.
Data set [10] can be described thus: Metal chelating activity assessed as free Fe2+ chelation by measuring decrease in cellular LIP content at IC50 measured after 48 hrs by red fluorescent probe based fluorescence microscopy.
A short description of data set [11]: Drug uptake in human Jurkat cells assessed as localization of compound in nuclear and perinuclear region at IC50 incubated for 24 hrs by NucSpot Live 488 probe based fluorescence microscopy. It counts as ADME, cell-based.
For data set [12], the system named is Jurkat. Description: Induction of apoptosis in human Jurkat cells assessed as reduction in Bcl-2 expression at IC50 incubated for 24 to 48 hrs by western blot analysis. It counts as functional, cell-based. Conditions: time 24-48 hrs.
Data set [13] deals with Jurkat. In words: Induction of apoptosis in human Jurkat cells assessed as induction of phosphotidylserine exposure at IC50 incubated for 48 hrs by fluorescence microscopy. The class given is functional, cell-based.
Data set [14] in a line: Metal chelating activity assessed as compound-Fe3+ complex formation at compound:iron concentration ratio of 1:1 and measured in acidic medium.
Data set [15] in a line: Metal chelating activity assessed as compound-Fe3+ complex formation at compound:iron concentration ratio of 2:1 and measured in acidic medium.
The nature of data set [16]: Metal chelating activity assessed as compound-Fe3+ complex formation at compound:iron concentration ratio of 3:1 and measured at pH 6 to 8.
The target of data set [17] is Quadruplex DNA. Description: Binding affinity to Cy5-labeled c-Myc G4-quadruplex DNA (Cy5-TGAGGGTGGGTAGGGTGGGTAA-3') (unknown origin) assessed as equilibrium dissociation constant measured at 25 degC by microscale thermophoresis analysis. The class given is nucleic-acid assay. For orientation: MST reads how a fluorescent partner responds to local heating, with and without ligand.

Data set [18] concerns the target Quadruplex DNA. In words: Binding affinity to Cy5-labeled Bcl-2 G4-quadruplex DNA (Cy5-AGGGCGCGGGAGGAAGGGGGCGGGA-3') (unknown origin) assessed as equilibrium dissociation constant measured at 25 degC by microscale thermophoresis analysis. It counts as nucleic-acid assay.
Data set [19] deals with Quadruplex DNA. In words: Binding affinity to Cy5-labeled c-Kit2 G4-quadruplex DNA (Cy5-CGGGCGGGCGCTAGGGAGGGT-3') (unknown origin) assessed as equilibrium dissociation constant measured at 25 degC by microscale thermophoresis analysis. The class given is nucleic-acid assay.
Data set [20] concerns the target Quadruplex DNA. Description: Binding affinity to human Cy5-labeled Tel23 G4-quadruplex DNA (Cy5-TAGGGTTAGGGTTAGGGTTAGGG-3') assessed as equilibrium dissociation constant measured at 25 degC by microscale thermophoresis analysis. It counts as nucleic-acid assay.
The target in data set [21] is Hairpin duplex DNA. In words: Binding affinity to Cy5-labeled Hairpin duplex DNA (Cy5-CGCGAATTCGCGTTTCGCGAATTCGCG-3') (unknown origin) assessed as equilibrium dissociation constant measured at 25 degC by microscale thermophoresis analysis. The class given is nucleic-acid assay.
Data set [22] relates to Quadruplex DNA. In words: Binding affinity to Bcl-2 G4-quadruplex DNA (5'-AGGGCGCGGGAGGAAGGGGGCGGGA-3') (unknown origin) assessed as perturbations of imino protons of G7,G19 and G23 within 3' G-tetrad with no significant change in aromatic proton regions upto compound:G4 ratio of 6:1 by ID IH NMR analysis. It counts as nucleic-acid assay.
The subject of data set [23] is Quadruplex DNA. In words: Binding affinity to Bcl-2 G4-quadruplex DNA (5'-AGGGCGCGGGAGGAAGGGGGCGGGA-3') (unknown origin) assessed as perturbations of imino protons of G8,G18 and G22 within middle G-tetrad with no significant change in aromatic proton regions upto compound:G4 ratio of 6:1 by ID IH NMR analysis. The class given is nucleic-acid assay.
For data set [24], the system named is Quadruplex DNA. In words: Binding affinity to Bcl-2 G4-quadruplex DNA (5'-AGGGCGCGGGAGGAAGGGGGCGGGA-3') (unknown origin) assessed as perturbations of imino protons of G1,G17 and G21 within 5' G-tetrad with no significant change in aromatic proton regions upto compound:G4 ratio of 6:1 by ID IH NMR analysis. It counts as nucleic-acid assay.
Data set [25] has as its system Quadruplex DNA. In words: Binding affinity to c-Myc G4-quadruplex DNA (5'-TGAGGGTGGGTAGGGTGGGTAA-3') (unknown origin) assessed as perturbations of imino protons of G7,G11,G16,G20 within 5' G-tetrad at compound:G4 ratio of 2:1 by 1D 1H NMR analysis. The class given is nucleic-acid assay.
For data set [26], the system named is Quadruplex DNA. Description: Binding affinity to c-Myc G4-quadruplex DNA (5'-TGAGGGTGGGTAGGGTGGGTAA-3') (unknown origin) assessed as perturbations of imino protons of G9,G13,G18,G22 within 3' G-tetrad at compound:G4 ratio of 2:1 by 1D 1H NMR analysis. It counts as nucleic-acid assay.
Data set [27] has as its system Quadruplex DNA. Description: Binding affinity to c-Myc G4-quadruplex DNA (5'-TGAGGGTGGGTAGGGTGGGTAA-3') (unknown origin) assessed as perturbations of imino protons of G8,G12,G17,G21 within middle G-tetrad at compound:G4 ratio of 2:1 by 1D 1H NMR analysis. The class given is nucleic-acid assay.
Data set [28] has as its system Quadruplex DNA. In words: Binding affinity to c-Myc G4-quadruplex DNA (5'-TGAGGGTGGGTAGGGTGGGTAA-3') (unknown origin) assessed as perturbations of aromatic protons of T23, A24 and A25 with no significant change in aromatic protons of loops at compound:G4 ratio of 2:1 by 1D 1H NMR analysis. The class given is nucleic-acid assay.
A short description of data set [29]: Metal chelating activity assessed as affinity to Fe3+ at compound:iron concentration ratio of 3:1 and measured at pH 7.4.

Activity calls are given as the source filed them. No cut-off for these calls is given here.

One may read the ΔTm as the shift of the melting midpoint relative to a reference. A word on the IC50: it is the point on the concentration scale where inhibition reaches its midpoint. Broadly, the Kd is the constant that tells how readily two partners part at equilibrium. For the molecule `CN(C)CCCNC(=O)c1ccc2[nH]c(=O)c3cc(=O)c(O)cn3c2c1`, the ΔTm with Quadruplex DNA [1] worked out at 5.5 °C; with Quadruplex DNA [2] it was 10.1 °C; in the data set with Quadruplex DNA [3], 7.4 °C; in the data set with Quadruplex DNA [4], 8.7 °C; in the data set with Quadruplex DNA [5], 3.8 °C; in the data set on Hairpin duplex DNA [6], 1.8 °C. The IC50 was 30 µM in the data set on Jurkat [7], greater than 200 µM in the data set with A-375, greater than 200 µM in the data set with MCF7 and greater than 200 µM with HCT-116. Also, the half-maximal inhibitory concentration (IC50) at 48 h in data set [8] was greater than 200 µM. Moreover, the Activity result with Jurkat [9] is “Dose-dependent-effect”. For the same molecule, the result (in [10]; in the data set on Jurkat [12]; in the data set on Jurkat [13]; in data set [14]; in [15]; in data set [16]) was Active. The outcome in the data set with Quadruplex DNA [22], with Quadruplex DNA [23], in the data set on Quadruplex DNA [24], with Quadruplex DNA [25], in the data set with Quadruplex DNA [26] and in the data set with Quadruplex DNA [27] was Active. Besides, in the data set on Quadruplex DNA [28], the result was Active. Besides, the Drug uptake result in data set [11] is listed as “Active”. Further, the dissociation constant Kd on Quadruplex DNA [17] was 300 nM; at Quadruplex DNA [18] it was 500 nM; on Quadruplex DNA [19], 1100 nM; on Quadruplex DNA [20], 3.1 µM; on Hairpin duplex DNA [21] it was greater than 20 µM. Besides, in data set [29], the pFe3+ came out at 16.8.
Turning to `CN(C)CCCNC(=O)c1ccc2[nH]c(=O)c3cc(=O)c(OCc4ccccc4)cn3c2c1`, the ΔTm in the data set with Quadruplex DNA [1] worked out at 9.6 °C; with Quadruplex DNA [2], 27.6 °C; in the data set with Quadruplex DNA [3], 12 °C; in the data set on Quadruplex DNA [4], 15.6 °C; with Quadruplex DNA [5], 5.1 °C; in the data set with Hairpin duplex DNA [6], 1.5 °C. Besides, the IC50 with Jurkat [7] was 55 µM; in the data set with A-375, greater than 200 µM; in the data set on MCF7 it was greater than 200 µM; in the data set on HCT-116 it was greater than 200 µM. In data set [8], the IC50 at 48 h is greater than 200 µM. Also, the Activity result in the data set with Jurkat [9] was “Dose-dependent-effect”. Further, in [10], the outcome was inactive.
`O=C(NCCN1CCCC1)c1ccc2[nH]c(=O)c3cc(=O)c(O)cn3c2c1`: the ΔTm is 3.6 °C with Quadruplex DNA [1]; 6.6 °C with Quadruplex DNA [2]; 5 °C in the data set with Quadruplex DNA [3]; 1.6 °C in the data set on Quadruplex DNA [4]; 2.7 °C in the data set with Quadruplex DNA [5]; 2.5 °C in the data set on Hairpin duplex DNA [6].
For `O=C(NCc1ccccc1)c1ccc2[nH]c(=O)c3cc(=O)c(OCc4ccccc4)cn3c2c1`, the shift in melting temperature (ΔTm) was found to be 0.1 °C in the data set on Quadruplex DNA [1]; 7.5 °C in the data set on Quadruplex DNA [2]; 3.7 °C in the data set with Quadruplex DNA [3]; 3.6 °C with Quadruplex DNA [4]; 1.2 °C in the data set on Quadruplex DNA [5]; 0.3 °C with Hairpin duplex DNA [6].
Take `O=C(O)c1ccc2[nH]c(=O)c3cc(=O)c(OCc4ccccc4)cn3c2c1`: the shift in melting temperature (ΔTm) with Quadruplex DNA [1] is -0.1 °C; in the data set on Quadruplex DNA [2], 3.3 °C; in the data set with Quadruplex DNA [3], 0.5 °C; in the data set with Quadruplex DNA [4] it was 1.4 °C; with Quadruplex DNA [5] it was 1 °C; with Hairpin duplex DNA [6] it was 1 °C.
With `N=C(N)NCCCNC(=O)c1ccc2[nH]c(=O)c3cc(=O)c(O)cn3c2c1`, the thermal shift (ΔTm) in the data set on Quadruplex DNA [1] worked out at 3.2 °C; in the data set with Quadruplex DNA [2], 8.6 °C; in the data set on Quadruplex DNA [3], 3.6 °C; in the data set with Quadruplex DNA [4], 8.5 °C; in the data set on Quadruplex DNA [5], 2.8 °C; in the data set with Hairpin duplex DNA [6], 0.5 °C.
Regarding `O=C(NCCN1CCOCC1)c1ccc2[nH]c(=O)c3cc(=O)c(O)cn3c2c1`, the ΔTm with Quadruplex DNA [1] was 2.2 °C; in the data set with Quadruplex DNA [2] it was 5.5 °C; in the data set on Quadruplex DNA [3], 1.7 °C; in the data set on Quadruplex DNA [4], -0.5 °C; in the data set with Quadruplex DNA [5], 2.3 °C; with Hairpin duplex DNA [6], 2.8 °C.
`COc1cn2c(cc1=O)c(=O)[nH]c1ccc(C(=O)NCCCN(C)C)cc12`: the ΔTm in the data set on Quadruplex DNA [1] came out at 9.3 °C; in the data set on Quadruplex DNA [2], 17.3 °C; in the data set on Quadruplex DNA [3], 5.9 °C; in the data set on Quadruplex DNA [4], 13.5 °C; in the data set with Quadruplex DNA [5], 4.2 °C; in the data set on Hairpin duplex DNA [6] it was 1.8 °C.
Regarding `Cc1c(O)c(=O)ccn1C`, in data set [29], the pFe3+ stood at 20.
